GI50 and TGI data for eight compounds are collected here from PubChem BioAssay (NCI).

Holding throughout (experiment): NCI tumour cell line growth inhibition, 48 h
Test [1] concerns SK-MEL-28 melanoma.
The subject of test [2] is HS 578T breast.
For test [3], the system named is COLO 205 colon.
Test [4] concerns PC-3 prostate.
Test [5] deals with SK-MEL-5 melanoma.
In test [6] the test system is OVCAR-8 ovarian.
For test [7], the system named is M14 melanoma.
The test system of test [8] is NCI-H226 lung.
For test [9], the system named is A549 NSCLC.
In test [10] the test system is MOLT-4 leukemia.

Where “and” joins values, the source holds several entries; their conditions need not be identical. Equal entries are not always repeated.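 Briefly, cells in 96-well plates were exposed to five compound concentrations for 48 h, and endpoints were estimated by linear interpolation. Abbreviation: GI50, concentration required for 50% inhibition of growth. TGI: concentration producing complete growth inhibition.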

Turning to `Oc1c(Br)cc(Br)c2cccnc12`, the GI50 in [1] is 4.79 µM; in test [2], 5.73 µM; in test [3], 3.79 µM; in test [4] it was 4.5 µM; in [5], 2.09 µM; in test [6] it was 3.75 µM. The GI50 in [7] is 2.14 µM; in test [8] it was 5.09 µM; in test [9], 3.62 µM; in test [10], 3 µM. The TGI is more than 100 µM in test [1]; more than 100 µM in [2]; 25 µM in test [3]; more than 100 µM in test [4]; 5.19 µM in test [5]; more than 100 µM in test [6]. For the same compound, the TGI in [7] was found to be 5.11 µM; in test [8], 30.2 µM; in [9], 54.6 µM; in test [10] it was 8.49 µM.

`COc1ccc(C2CC(c3ccc(OC)c(OC)c3)=NN2C(=O)c2cc(OC)c(OC)c(OC)c2)cc1` (centres undefined): the GI50 was 68.5 µM in test [1]; 2.07 µM in test [2]; 2.81 µM in test [3]; 3.57 µM in test [4]; 0.558 µM in test [5]; 3.96 µM in test [6]. In addition, the GI50 is 1.95 µM in test [7], 3.06 µM in test [8], 2.88 µM in test [9] and 7.36 µM in test [10]. In addition, the TGI is more than 100 µM in [1]; more than 100 µM in test [2]; more than 28 µM in [3]; more than 100 µM in test [4]; 4.83 µM in test [5]; more than 100 µM in test [6]. The TGI in [7], in test [8], in test [9] and in test [10] was more than 100 µM throughout.

On to `O=C(/C=C/CN1CCCCC1)Nc1cc2c(Nc3ccc(F)c(Cl)c3F)ncnc2cc1OCCOC(F)F`, for which the GI50 in [1] is 2.27 µM; in test [2], 0.873 µM; in test [3], 1.6 µM; in test [4] it was 1.68 µM; in test [5], 1.54 µM; in [6], 0.805 µM. Besides, the GI50 was 2.12 µM in [7], 1.48 µM in [8], 0.585 µM in [9] and 1.15 µM in [10]. In addition, the TGI in [1] stood at 9.19 µM; in test [2] it was 6.05 µM; in test [3] it was 4.93 µM; in [4], 8.43 µM; in [5], 3.07 µM; in test [6], 10.3 µM. The TGI amounted to 6.61 µM in test [7], 5.73 µM in test [8], 9.92 µM in test [9] and 5.27 µM in test [10].

As for `CN(C)CCCn1c2c(c3ccc([N+](=O)[O-])cc3c1=O)C(=O)c1ccccc1-2`, the GI50 in [1] was more than 100 µM; in test [2], 41.3 µM; in test [3], 23.9 µM; in test [4], 6.06 µM; in test [5] it was 3.79 µM; in test [6] it was 17 µM. Also, the GI50 in test [7] is 8.54 µM; in test [8], 6.82 µM; in test [9], 17.5 µM; in test [10], 0.696 µM. Further, the TGI was more than 100 µM in test [1]; more than 100 µM in [2]; 87.5 µM in [3]; more than 100 µM in [4]; 16.6 µM in [5]; 49.4 µM in test [6]. The TGI is more than 100 µM in test [7], 24 µM in test [8], 46.1 µM in test [9] and more than 100 µM in [10].

As for `C[CH2][Ge]1([CH2]C)[CH2]CC2(CCN(CCCN(C)C)C2)C[CH2]1`, the GI50 in test [1] is 1.34 µM and 1.79 µM; in [2], 1.57 µM; in [3] it was 0.39 µM and 1.29 µM; in test [4], 1.8 µM; in [5] it was 0.444 µM and 1.44 µM; in [6] it was 1.7 µM and 1.25 µM. Besides, the GI50 is 0.333 µM in [7]; 2.24 µM and 17.3 µM in test [8]; 1.44 µM and 2.35 µM in test [9]. The TGI in [1] was 2.71 µM and 3.27 µM; in test [2] it was 3.3 µM; in [3], 1.12 µM and 1.77 µM; in test [4], 4.44 µM and 1.34 µM; in test [5] it was 1.13 µM and 2.22 µM; in test [6], 4.05 µM and 1.73 µM. Moreover, the TGI is 0.624 µM in test [7]; 4.92 µM and 32.1 µM in [8]; 2.93 µM and 4.47 µM in test [9]; 2.91 µM and 25.7 µM in test [10].

For the compound `CCOC(=O)C(Cc1ccc(N(CCCl)CCCl)cc1)NC(=O)C(CC(C)C)NC(C)=O` (centres undefined), the GI50 is 1.61 µM in test [1]; 2.55 µM in [2]; 1.25 µM in test [3]; 1.3 µM in test [4]; 2.45 µM in [5]; 1.02 µM in [6]. Besides, the GI50 in test [7] was 0.568 µM; in test [8], 3.79 µM; in test [9], 1.73 µM; in [10], 0.302 µM. The TGI was found to be 3.82 µM in test [1]; 7.92 µM in test [2]; 2.7 µM in [3]; 5.4 µM in test [4]; 9.82 µM in test [5]; 5.18 µM in test [6]. Besides, the TGI was 2.19 µM in test [7], 10.7 µM in test [8], 25.6 µM in test [9] and 2.4 µM in test [10].

`COc1cc2c(cc1Nc1nc(Nc3ccsc3C(N)=O)c3cc[nH]c3n1)N(C(=O)CN(C)C)CCC2`: the GI50 in test [1] is 1.8 µM; in [2], 1.14 µM; in test [3], less than 0.0025 µM; in test [4], 1.17 µM; in [5], 0.383 µM; in test [6], 0.842 µM. For the same compound, the GI50 is 0.592 µM in [7], 1.12 µM in test [8], 0.636 µM in [9] and 1.23 µM in [10]. Moreover, the TGI was 5.69 µM in [1]; 5.42 µM in test [2]; 0.394 µM in test [3]; more than 23.6 µM in test [4]; 3.2 µM in [5]; more than 11.2 µM in test [6]. Moreover, the TGI in test [7] came to 3.28 µM; in test [8], 7.18 µM; in test [9] it was 3.92 µM; in test [10], 9.6 µM.

For the compound `C/C(=C1/N=C(c2ccccc2)OC1=O)c1cccs1`, the TGI in test [1], in test [2], in test [3], in test [4], in test [5] and in test [6] was more than 100 µM each time. In addition, the TGI in test [7], in test [8], in test [9] and in [10] was more than 100 µM throughout.
